Measured values: patent US7468391B2, “Methods for treating retinoid responsive disorders using selective inhibitors of CYP26A and CYP26B” (Allergan, Inc., priority 2003, dated 2008)

How the values were obtained:
CYP26A (P450RAI-1) = target: T1, CYP26A (P450RAI-1) (Homo sapiens, UniProt O43174); test: Cell-based inhibition of RA metabolism in CYP26A stably transfected HeLa cells; settings: stably transfected HeLa cells, [3H]-RA, 3 hours at 37° C.; read-out: P450RAI-1 Whole cell IC50
T1 construct: expressed in transfected cells; host or cells: HeLa
T1 sequence (O43174 1-497): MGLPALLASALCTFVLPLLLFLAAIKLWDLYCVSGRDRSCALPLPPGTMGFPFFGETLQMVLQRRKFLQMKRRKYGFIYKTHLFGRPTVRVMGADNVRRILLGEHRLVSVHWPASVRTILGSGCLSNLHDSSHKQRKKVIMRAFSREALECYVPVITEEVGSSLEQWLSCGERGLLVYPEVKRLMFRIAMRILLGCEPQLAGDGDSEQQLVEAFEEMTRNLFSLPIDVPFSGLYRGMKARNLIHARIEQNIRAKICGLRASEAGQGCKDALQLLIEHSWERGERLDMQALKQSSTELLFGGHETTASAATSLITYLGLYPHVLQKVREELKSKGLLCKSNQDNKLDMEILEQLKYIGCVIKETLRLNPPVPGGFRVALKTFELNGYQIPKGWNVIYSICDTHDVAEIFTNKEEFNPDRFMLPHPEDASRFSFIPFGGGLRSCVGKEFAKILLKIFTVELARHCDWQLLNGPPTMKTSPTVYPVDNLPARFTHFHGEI
Summary of the method: (§1)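 Stably transfected HeLa cells (5×10^5/well) in MEM with 10% FBS and 0.05 μCi [3H]-RA, compounds at 10, 1 or 0.1 μM final, 3 h at 37° C. Retinoids extracted by modified Bligh-Dyer (methylene chloride); aqueous radioactivity counted; ID50 for 50% inhibition of RA metabolism derived from log-transformed data.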

CYP26B (P450RAI-2) = target: T2, CYP26B (P450RAI-2) (Homo sapiens, UniProt Q9NR63); test: Cell-based inhibition of RA metabolism in CYP26B stably transfected HeLa cells; settings: stably transfected HeLa cells, [3H]-RA, 3 hours at 37° C.; read-out: P450RAI-2 Whole cell IC50
T2 construct: expressed in transfected cells; host or cells: HeLa
T2 sequence (Q9NR63 1-512): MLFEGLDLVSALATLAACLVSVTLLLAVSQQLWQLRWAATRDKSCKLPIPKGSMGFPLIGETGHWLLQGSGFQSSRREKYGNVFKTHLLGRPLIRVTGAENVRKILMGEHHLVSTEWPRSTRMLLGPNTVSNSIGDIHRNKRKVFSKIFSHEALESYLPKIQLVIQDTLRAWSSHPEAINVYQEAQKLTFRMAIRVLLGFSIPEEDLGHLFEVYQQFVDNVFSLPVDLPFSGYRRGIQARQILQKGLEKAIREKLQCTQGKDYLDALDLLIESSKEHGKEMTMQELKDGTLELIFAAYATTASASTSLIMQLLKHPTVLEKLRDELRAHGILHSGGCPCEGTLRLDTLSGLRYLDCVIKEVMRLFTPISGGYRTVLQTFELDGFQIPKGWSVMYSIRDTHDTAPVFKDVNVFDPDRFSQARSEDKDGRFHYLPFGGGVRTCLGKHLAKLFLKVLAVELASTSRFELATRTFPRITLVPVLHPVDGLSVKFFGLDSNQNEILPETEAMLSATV
Summary of the method: as §1

RAR γ [1] = target: T3, RAR γ (Homo sapiens, UniProt P13631); test: RAR γ EC50/(efficacy); assay type: cell-based; settings: for RAR γ (EFFICACY): value in brackets of cell EC50/(EFFICACY)/Kd; for EC50: first item of cell EC50/(EFFICACY)/Kd
T3 sequence (P13631 1-454): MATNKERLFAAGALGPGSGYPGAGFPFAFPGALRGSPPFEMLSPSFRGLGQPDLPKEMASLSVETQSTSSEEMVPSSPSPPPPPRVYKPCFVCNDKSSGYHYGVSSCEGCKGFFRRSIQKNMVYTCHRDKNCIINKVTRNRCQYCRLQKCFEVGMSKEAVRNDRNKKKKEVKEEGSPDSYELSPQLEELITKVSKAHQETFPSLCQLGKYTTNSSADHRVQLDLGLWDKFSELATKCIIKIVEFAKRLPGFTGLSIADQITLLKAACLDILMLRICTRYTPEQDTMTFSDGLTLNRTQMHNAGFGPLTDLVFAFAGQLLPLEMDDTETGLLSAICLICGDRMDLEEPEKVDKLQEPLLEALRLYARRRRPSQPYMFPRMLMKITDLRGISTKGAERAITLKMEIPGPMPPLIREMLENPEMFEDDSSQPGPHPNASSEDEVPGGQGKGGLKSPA

RAR γ [2] = target: T3, RAR γ; test: RAR γ Kd; assay type: binding; settings: last item of cell EC50/(EFFICACY)/Kd
RAR β [3] = target: T4, RAR β (Homo sapiens, UniProt P10826); test: RAR β Kd; assay type: binding; settings: last item of cell EC50/(EFFICACY)/Kd
T4 sequence (P10826 1-455): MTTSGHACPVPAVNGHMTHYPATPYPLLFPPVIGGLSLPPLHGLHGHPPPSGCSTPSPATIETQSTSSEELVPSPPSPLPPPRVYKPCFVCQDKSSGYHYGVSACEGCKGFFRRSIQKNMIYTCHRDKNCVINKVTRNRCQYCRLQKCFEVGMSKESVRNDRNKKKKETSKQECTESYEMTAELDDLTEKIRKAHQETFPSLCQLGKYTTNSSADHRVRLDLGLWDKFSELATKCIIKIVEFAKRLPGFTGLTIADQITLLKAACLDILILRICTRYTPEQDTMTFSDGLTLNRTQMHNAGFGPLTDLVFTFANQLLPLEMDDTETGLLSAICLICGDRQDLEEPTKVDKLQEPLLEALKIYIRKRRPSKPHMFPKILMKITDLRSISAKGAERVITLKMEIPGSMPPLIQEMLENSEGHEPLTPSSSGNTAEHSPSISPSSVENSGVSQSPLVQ

RAR β [4] = target: T4, RAR β; test: RAR β EC50/(efficacy); assay type: cell-based; settings: for EC50: first item of cell EC50/(EFFICACY)/Kd; for RAR β (EFFICACY): value in brackets of cell EC50/(EFFICACY)/Kd
RAR α [5] = target: T5, RAR α (Homo sapiens, UniProt P10276); test: RAR α Kd; assay type: binding; settings: last item of cell EC50/(EFFICACY)/Kd
T5 sequence (P10276 1-462): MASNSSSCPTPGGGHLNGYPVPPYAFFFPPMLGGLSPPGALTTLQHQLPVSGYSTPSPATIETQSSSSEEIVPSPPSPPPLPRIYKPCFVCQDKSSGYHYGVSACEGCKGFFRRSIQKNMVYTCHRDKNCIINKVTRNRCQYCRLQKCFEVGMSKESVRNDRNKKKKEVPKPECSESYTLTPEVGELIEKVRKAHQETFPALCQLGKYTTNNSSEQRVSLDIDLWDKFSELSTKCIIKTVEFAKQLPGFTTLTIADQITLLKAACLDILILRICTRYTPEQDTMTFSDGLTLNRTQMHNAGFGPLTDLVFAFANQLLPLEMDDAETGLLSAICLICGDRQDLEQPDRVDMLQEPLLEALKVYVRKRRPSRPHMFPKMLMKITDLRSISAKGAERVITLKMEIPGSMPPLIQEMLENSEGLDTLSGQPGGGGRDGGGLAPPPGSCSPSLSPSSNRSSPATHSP

RAR α [6] = target: T5, RAR α; test: RAR α EC50/(efficacy); assay type: cell-based; settings: for RAR α (EFFICACY): value in brackets of cell EC50/(EFFICACY)/Kd; for EC50: first item of cell EC50/(EFFICACY)/Kd

| IC50 (CYP26A (P450RAI-1)) | IC50 (CYP26B (P450RAI-2)) | RAR γ (EFFICACY) (RAR γ [1]) | Kd (RAR γ [2]) | Kd (RAR β [3]) | EC50 (RAR β [4]) | RAR β (EFFICACY) (RAR β [4]) | Kd (RAR α [5]) | RAR α (EFFICACY) (RAR α [6]) | EC50 (RAR γ [1]) | EC50 (RAR α [6]) | Compound |
| --- | --- | --- | --- | --- | --- | --- | --- | --- | --- | --- | --- |
| > 10 µM | 0.5 µM | 15 | > 10 µM | 7.02 µM |  | 70 | > 10 µM | 10 |  |  | CN(c1cccc(C#Cc2ccc(/C=C/C(=O)O)cc2)c1)C1CC1 [Compound 37, (E)-3-{4-[3-(Cyclopropyl-methyl-amino)-phenylethynyl]-phenyl}-acrylic acid] |
| 4 µM | > 10 µM |  | > 10 µM | > 10 µM |  |  | > 10 µM | 10 |  |  | CC(C)OC(=O)c1ccc(C#Cc2ccc(CC(=O)O)cc2)cc1CN(C)C1CC1 [Compound 38, 4-(4-Carboxymethyl-phenylethynyl)-2-[(cyclopropyl-methyl-amino)-methyl]-benzoic acid isopropyl ester] |
| 0.7 µM | > 10 µM | 68 | 0.255 µM | 0.076 µM | 0.018 µM | 55 | 0.0099 µM | 52 | 0.031 µM | 0.118 µM | C#Cc1c(C)c(C#Cc2ccc(CC(=O)O)cc2)cc(C(C)(C)C)c1OC(C)C [Compound 45, [4-(5-tert-Butyl-3-ethynyl-4-isopropoxy-2-methyl-phenylethynyl)-phenyl]-acetic acid] |
| 0.7 µM | > 10 µM | 65 | 0.215 µM | 0.045 µM | 0.01 µM | 75 | 0.085 µM | 67 | 0.007 µM | 0.065 µM | C=Cc1c(C)c(C#Cc2ccc(CC(=O)O)cc2)cc(C(C)(C)C)c1OC(C)C [Compound 46, [4-(5-tert-Butyl-4-isopropoxy-2-methyl-3-vinyl-phenylethynyl)-phenyl]-acetic acid] |
| 1.4 µM | > 10 µM | 30 | > 10 µM | > 10 µM |  | 35 | > 10 µM |  |  |  | CCOC(=O)C1=CCC(C)(C)c2cc(C#Cc3ccc(CC(=O)O)cc3)c(C)cc21 [Compound 55, 6-(4-Carboxymethyl-phenylethynyl)-4,4,7-trimethyl-3,4-dihydro-naphthalene-1-carboxylic acid ethyl ester] |
| 0.06 µM | 2.6 µM | 15 | 8.99 µM | 3.96 µM |  | 60 | 6.32 µM |  |  |  | CCOC(=O)C1=CCC(C)(C)c2cc(C#Cc3ccc(CC(=O)O)c(F)c3)ccc21 [Compound 60, 6-(4-Carboxymethyl-3-fluoro-phenylethynyl)-4,4-dimethyl-3,4-dihydro-naphthalene-1-carboxylic acid ethyl ester] |

Second part, the molecule before the results:

| Compound | IC50 (CYP26A (P450RAI-1)) | IC50 (CYP26B (P450RAI-2)) | RAR γ (EFFICACY) (RAR γ [1]) | Kd (RAR γ [2]) | Kd (RAR β [3]) | EC50 (RAR β [4]) | RAR β (EFFICACY) (RAR β [4]) | Kd (RAR α [5]) | RAR α (EFFICACY) (RAR α [6]) | EC50 (RAR γ [1]) | EC50 (RAR α [6]) |
| --- | --- | --- | --- | --- | --- | --- | --- | --- | --- | --- | --- |
| CC1(C)CC2(CC2)Oc2c(C3CC3)cc(NC(=O)Nc3ccc(C(=O)O)cc3)cc21 [Compound 5, 4-{3-[8-Cyclopropyl-3,3-dihydro-4,4-dimethylspiro(2H-1-benzopyran-2,2′-cyclopropane)-6-yl]-ureido}-benzoic acid] | > 10 µM | 0.45 µM | 15 | > 10 µM | 4.54 µM | 0.32 µM | 55 | > 10 µM |  |  |  |
| CCC1(CC)CC(C)(C)c2cc(C#Cc3ccc(C(C)(C)C(=O)O)cc3)cc(C(C)C)c2O1 [Compound 14, 2-[4-(2,2-Diethyl-8-isopropyl-4,4-dimethyl-chroman-6-ylethynyl)-phenyl]-2-methyl-propionic acid] | 0.7 µM | > 10 µM | 25 | > 10 µM | 7.4 µM |  | 10 | 5.17 µM |  |  |  |
| CC(C)c1cc(C(=O)Oc2ccc(/C=C/C(=O)O)cc2)cc2c1OC(C)(C)CC2(C)C [Compound 16, 8-Isopropyl-2,2,4,4-tetramethyl-chroman-6-carboxylic acid 4-(2-carboxy-vinyl)-phenyl ester] | 0.3 µM | > 10 µM | ~5 | > 10 µM | 0.81 µM |  | 35 | 3.08 µM | ~5 |  |  |
| C=Cc1cc(C#Cc2ccc(CC(=O)O)cc2)cc2c1C(N(C)C1CC1)CCC2(C)C (stereo not drawn) [Compound 23, {4-[5-(Cyclopropyl-methyl-amino)-8,8-dimethyl-4-vinyl-5,6,7,8-tetrahydro-naphthalen-2-ylethynyl]-phenyl}-acetic acid] | 0.008 µM | 0.5 µM | 35 | > 10 µM | > 10 µM |  | 40 | > 10 µM |  |  |  |
| CC(C)(C)c1cccc(C#Cc2ccc(/C=C/C(=O)O)cc2)c1 [Compound 35, (E)-3-[4-(3-tert-Butyl-phenylethynyl)-phenyl]-acrylic acid] | > 10 µM | 0.5 µM | 48 | 2.89 µM | 2.09 µM | 0.016 µM | 80 | 1.93 µM |  | 0.126 µM |  |
| Cc1ccc(C(C)(C)C)cc1C#Cc1ccc(/C=C/C(=O)O)cc1 [Compound 36, 3-[4-(5-tert-Butyl-2-methyl-phenylethynyl)-phenyl]-acrylic acid] | > 10 µM | 0.4 µM | 15 | 2.08 µM | 3.52 µM |  | 40 | > 10 µM |  |  |  |
